This is an account of results in paper PMC12114571, “3-(3-Azabicyclo[2, 2, 1]heptan-2-yl)-1,2,4-oxadiazoles as Novel Potent DPP-4 Inhibitors to Treat T2DM” (Pharmaceuticals, 2025).

Assay [1] addresses T1, recombinant DPP-4 enzyme D4943 (Homo sapiens, UniProt P27487).
T1 construct: purchased Sigma-Aldrich D4943
The assay can be described thus: DPP-4 enzyme inhibitory assay, chromogenic substrate Gly-Pro-pNA, absorbance at 405 nm. The class given is biochemical. To be noted: 37 °C for 30 min, pH = 7.6, dilution range 10^−4 to 10^−11 M. How it is done: (§1) The assessment of DPP-4 enzyme inhibitory activities for the synthesised compounds was performed using protocols similar to those previously described in the literature. […] Following a brief incubation period (37 °C for 30 min), absorbance at 405 nm was measured. Initial optimisation of the procedure utilised reference compounds. […] Correspondingly, the analysis of inhibition activity for related enzymes was executed using DPP-8 and DPP-9 inhibition assays, where the compounds were studied in the dilution range 10^−2 to 10^−8 M (Table 2).
(§2) For the in vitro assays, we used the substrate Gly-Pro-p-nitroanilide (H-Gly-Pro pNA HCl, G0513) and recombinant dipeptidyl peptidase-4 enzyme (D4943), which were purchased from Sigma-Aldrich (St. Louis, MO, USA). Samples containing DPP-4 (0.0015 U/well) and varying concentrations of test compounds were incubated with the chromogenic peptide substrate, G0513 (90 µg/well), in a total volume of 100 µL of buffer system (50 mM Tris-HCl, 50 mM NaCl, 0.01% Triton, pH = 7.6). The mixtures were incubated at 37 ◦C for 30 min, and the absorbance at 405 nm was measured using the microplate reader ChemWell (Awareness Technology Inc., Palm City, FL, USA). The DPP-4 inhibitory activities for each test compound were calculated. IC50 values were obtained using GraphPad Prism 8 software. The inhibition activity analysis of the related enzymes was performed using the “Fluorogenic DPP-8 Assay Kit” and “Fluorogenic DPP-9 Assay Kit”, both purchased from BPS Bioscience (San Diego, CA, USA). The dilution range for every compound was 10^−2–10^−8 M.

The target in assay [2] is T2, DPP-8 (Homo sapiens, UniProt Q6V1X1).
T2 construct: purchased BPS Bioscience
T2 sequence (Q6V1X1 whole entry): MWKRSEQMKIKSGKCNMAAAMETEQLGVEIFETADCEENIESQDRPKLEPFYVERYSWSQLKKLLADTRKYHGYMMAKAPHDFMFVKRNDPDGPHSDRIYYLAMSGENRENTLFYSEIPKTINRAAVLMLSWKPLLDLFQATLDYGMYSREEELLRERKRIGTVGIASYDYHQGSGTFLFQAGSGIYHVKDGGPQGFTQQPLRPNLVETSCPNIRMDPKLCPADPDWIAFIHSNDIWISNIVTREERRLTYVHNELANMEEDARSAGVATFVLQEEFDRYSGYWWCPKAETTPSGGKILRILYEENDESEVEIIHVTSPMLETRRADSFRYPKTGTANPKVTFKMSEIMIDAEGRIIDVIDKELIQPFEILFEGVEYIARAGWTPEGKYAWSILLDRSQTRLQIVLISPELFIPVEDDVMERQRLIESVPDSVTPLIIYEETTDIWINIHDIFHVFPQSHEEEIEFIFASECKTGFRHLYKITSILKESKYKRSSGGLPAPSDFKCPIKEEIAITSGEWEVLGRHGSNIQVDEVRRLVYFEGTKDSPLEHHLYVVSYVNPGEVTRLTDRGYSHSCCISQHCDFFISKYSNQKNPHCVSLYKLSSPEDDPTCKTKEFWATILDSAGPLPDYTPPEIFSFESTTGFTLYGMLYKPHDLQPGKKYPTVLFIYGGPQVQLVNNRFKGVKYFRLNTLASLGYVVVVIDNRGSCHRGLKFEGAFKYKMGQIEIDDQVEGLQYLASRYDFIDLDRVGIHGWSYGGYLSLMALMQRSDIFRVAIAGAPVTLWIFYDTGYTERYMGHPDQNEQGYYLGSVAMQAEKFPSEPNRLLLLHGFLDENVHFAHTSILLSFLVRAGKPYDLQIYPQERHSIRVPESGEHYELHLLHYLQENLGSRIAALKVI
Briefly: Fluorogenic DPP-8 Assay Kit inhibition assay. Format: biochemical. To be noted: for pIC50: dilution range 10^−2 to 10^−8 M. As to the method: as §1, §2

Assay [3] concerns the target T3, DPP-9 (Homo sapiens, UniProt Q86TI2).
T3 construct: purchased BPS Bioscience
The assay can be described thus: Fluorogenic DPP-9 Assay Kit inhibition assay. The class given is biochemical. The note with it: for pIC50: dilution range 10^−2 to 10^−8 M. As to the method: as §1, §2

In assay [4] the target is T1, recombinant DPP-4 enzyme D4943. Also noted: method as in PMID 35337071. To be noted: neogliptin reference value; cited from earlier work.
Assay [5] has as its target T2, DPP-8. Further details: method as in PMID 35337071. The note with it: neogliptin reference value; cited from earlier work.
Assay [6] has as its target T3, DPP-9. Also noted: method as in PMID 35337071. To be noted: neogliptin reference value; cited from earlier work.
[7] abbreviates: concentration range 10^−3–10^−6 M.

pIC50: −log10 of the molar value. Where two headings read alike, the source gives them in different places. Where only a bound is given, the exact number is not on record here.

T1 sequence (P27487 whole entry): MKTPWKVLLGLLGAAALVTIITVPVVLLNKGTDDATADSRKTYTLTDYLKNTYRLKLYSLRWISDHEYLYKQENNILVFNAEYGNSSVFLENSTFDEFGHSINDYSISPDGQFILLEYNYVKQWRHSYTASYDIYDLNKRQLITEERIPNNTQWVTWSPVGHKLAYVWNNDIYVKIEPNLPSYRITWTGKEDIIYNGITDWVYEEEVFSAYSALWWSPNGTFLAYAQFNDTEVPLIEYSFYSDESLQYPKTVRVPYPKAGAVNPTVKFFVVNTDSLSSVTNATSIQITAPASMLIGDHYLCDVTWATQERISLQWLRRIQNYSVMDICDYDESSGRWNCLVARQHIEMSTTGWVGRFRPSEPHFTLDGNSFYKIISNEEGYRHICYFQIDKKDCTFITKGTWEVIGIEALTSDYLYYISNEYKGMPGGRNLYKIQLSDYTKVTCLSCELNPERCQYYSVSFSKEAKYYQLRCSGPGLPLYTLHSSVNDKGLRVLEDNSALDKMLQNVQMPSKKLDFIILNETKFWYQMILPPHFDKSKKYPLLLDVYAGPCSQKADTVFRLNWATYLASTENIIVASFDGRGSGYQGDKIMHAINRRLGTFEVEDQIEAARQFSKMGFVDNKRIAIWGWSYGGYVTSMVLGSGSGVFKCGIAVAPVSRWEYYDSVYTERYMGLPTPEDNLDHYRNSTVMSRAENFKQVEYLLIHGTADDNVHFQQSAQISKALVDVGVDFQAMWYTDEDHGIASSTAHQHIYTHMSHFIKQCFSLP
T3 sequence (Q86TI2 whole entry): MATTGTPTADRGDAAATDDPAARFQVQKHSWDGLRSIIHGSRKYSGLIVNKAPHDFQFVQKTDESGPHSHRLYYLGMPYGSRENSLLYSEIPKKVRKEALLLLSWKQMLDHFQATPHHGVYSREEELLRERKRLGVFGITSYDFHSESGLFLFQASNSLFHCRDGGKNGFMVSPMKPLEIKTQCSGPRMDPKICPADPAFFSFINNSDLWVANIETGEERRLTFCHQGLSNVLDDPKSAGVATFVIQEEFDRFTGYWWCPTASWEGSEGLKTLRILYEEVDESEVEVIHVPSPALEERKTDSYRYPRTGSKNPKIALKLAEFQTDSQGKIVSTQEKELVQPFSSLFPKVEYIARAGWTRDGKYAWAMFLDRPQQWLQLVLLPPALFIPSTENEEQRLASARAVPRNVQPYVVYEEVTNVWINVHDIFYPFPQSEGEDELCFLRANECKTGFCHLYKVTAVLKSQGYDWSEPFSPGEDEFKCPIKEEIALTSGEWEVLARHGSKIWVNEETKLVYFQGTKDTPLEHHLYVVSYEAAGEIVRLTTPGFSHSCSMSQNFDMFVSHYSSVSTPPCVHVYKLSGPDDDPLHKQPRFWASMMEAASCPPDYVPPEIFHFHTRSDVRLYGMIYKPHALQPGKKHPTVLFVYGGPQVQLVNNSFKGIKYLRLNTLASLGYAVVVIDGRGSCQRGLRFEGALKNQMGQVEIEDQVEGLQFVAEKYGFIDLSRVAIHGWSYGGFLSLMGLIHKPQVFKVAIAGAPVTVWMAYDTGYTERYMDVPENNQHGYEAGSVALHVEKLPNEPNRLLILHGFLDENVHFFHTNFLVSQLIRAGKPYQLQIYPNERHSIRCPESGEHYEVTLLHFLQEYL

A word on the pIC50: it is the negative decadic logarithm of the IC50, by convention in mol/L. In the case of `N[C@@H](CC(=O)N1C2CCC(C2)[C@H]1c1noc(-c2ccccc2)n1)Cc1cc(F)c(F)cc1F` (stereo partly drawn) [3a, (3R)-3-Amino-1-[(3S)-3-(5-phenyl-1,2,4-oxadiazol-3-yl)-2-azabicyclo [2.2.1]heptan-2-yl]-4-(2,4,5-trifluorophenyl)butan-1-one], the pIC50 in assay [1] was 7.67; in assay [2], less than 6.00; in assay [3] it was less than 6.00.
`N[C@@H](CC(=O)N1C2CCC(C2)[C@@H]1c1noc(-c2ccccc2)n1)Cc1cc(F)c(F)cc1F` (stereo partly drawn) [3b, (3R)-3-Amino-1-[(3R)-3-(5-phenyl-1,2,4-oxadiazol-3-yl)-2-azabicyclo[2.2.1]heptan-2-yl]-4-(2,4,5-trifluorophenyl)butan-1-one]: the pIC50 in assay [1], in assay [2] and in assay [3] was less than 6.00 in each case.
In the case of `N[C@@H](CC(=O)N1C2CCC(C2)[C@H]1c1nc(-c2ccccc2)no1)Cc1cc(F)c(F)cc1F` (stereo partly drawn) [9a, (3R)-3-Amino-1-[(3S)-3-(3-phenyl-1,2,4-oxadiazol-5-yl)-2-azabicyclo[2.2.1]heptan-2-yl]-4-(2,4,5-trifluorophenyl)butan-1-one], the pIC50 is 8.37 in assay [1], less than 6.00 in assay [2] and less than 6.00 in assay [3]. Moreover, the “DPP-8 inhibitory activity (in words)” value in assay [2] (setting [7]) was “did not mediate any substantial inhibition”. Besides, the “DPP-9 inhibitory activity (in words)” value in assay [3] (setting [7]) was “did not mediate any substantial inhibition”.
In the case of `N[C@@H](CC(=O)N1C2CCC(C2)[C@@H]1c1nc(-c2ccccc2)no1)Cc1cc(F)c(F)cc1F` (stereo partly drawn) [9b, (3R)-3-Amino-1-[(3R)-3-(3-phenyl-1,2,4-oxadiazol-5-yl)-2-azabicyclo[2.2.1]heptan-2-yl]-4-(2,4,5-trifluorophenyl)butan-1-one], the pIC50 in assay [1], in assay [2] and in assay [3] was less than 6.00 in each case.
For `N#CC1C2CCC(C2)N1C(=O)CC(N)Cc1cc(F)c(F)cc1F` (centres unmarked) [Neogliptin, neogliptin], the pIC50 in assay [4] is 7.77; in assay [5] it was less than 6.00; in assay [6] it was less than 6.00.
